Data reported in the supplement of paper PMC10307832.

Tests used:
Assay in all cases: relative viability (nuclei count vs DMSO), 5 days (fraction); higher = more cells survive
Quizartinib + Bortezomib = compound: CC(C)(C)c1cc(NC(=O)Nc2ccc(-c3cn4c(n3)sc3cc(OCCN5CCOCC5)ccc34)cc2)no1 [Quizartinib] + CC(C)C[C@H](NC(=O)[C@H](Cc1ccccc1)NC(=O)c1cnccn1)B(O)O [Bortezomib] (partner 0.002 µM)
In short: (§1)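 Lung cancer cell lines, seeded in 1536-well plates, were treated the following day by pin tool with a single drug or with five library-drug doses (not always all listed) in √10 steps on top of a fixed anchor-drug dose. Cells were fixed and nuclei stained in one step after 5 days, and nuclei were counted. Relative viability is the nuclei count for treated wells divided by that for vehicle wells, reported as medians of duplicate plates.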

Quizartinib + Decitabine = compound: CC(C)(C)c1cc(NC(=O)Nc2ccc(-c3cn4c(n3)sc3cc(OCCN5CCOCC5)ccc34)cc2)no1 [Quizartinib] + Nc1ncn([C@H]2C[C@H](O)[C@@H](CO)O2)c(=O)n1 [Decitabine] (partner 2 µM)
In short: as §1

YM155 + Luminespib = compound: COCC[n+]1c2c(n(Cc3cnccn3)c1C)C(=O)c1ccccc1C2=O [YM155] + CCNC(=O)c1noc(-c2cc(C(C)C)c(O)cc2O)c1-c1ccc(CN2CCOCC2)cc1 [Luminespib] (partner 0.01 µM)
In short: as §1

YM155 + Dasatinib = compound: COCC[n+]1c2c(n(Cc3cnccn3)c1C)C(=O)c1ccccc1C2=O [YM155] + Cc1nc(Nc2ncc(C(=O)Nc3c(C)cccc3Cl)s2)cc(N2CCN(CCO)CC2)n1 [Dasatinib] (partner 0.075 µM)
In short: as §1

Cell Line	relative viability (Quizartinib + Bortezomib; first compound 0.001 µM)	relative viability (Quizartinib + Bortezomib; first compound 0.003162 µM)	relative viability (Quizartinib + Bortezomib; first compound 0.01 µM)	relative viability (Quizartinib + Bortezomib; first compound 0.03162 µM)	relative viability (Quizartinib + Bortezomib; first compound 0.1 µM)	relative viability (Quizartinib + Decitabine; first compound 0.001 µM)	relative viability (Quizartinib + Decitabine; first compound 0.003162 µM)	relative viability (Quizartinib + Decitabine; first compound 0.01 µM)	relative viability (Quizartinib + Decitabine; first compound 0.03162 µM)	relative viability (Quizartinib + Decitabine; first compound 0.1 µM)	relative viability (YM155 + Luminespib; first compound 0.002 µM)	relative viability (YM155 + Luminespib; first compound 0.006325 µM)	relative viability (YM155 + Luminespib; first compound 0.02 µM)	relative viability (YM155 + Luminespib; first compound 0.06325 µM)	relative viability (YM155 + Dasatinib; first compound 0.002 µM)	relative viability (YM155 + Dasatinib; first compound 0.006325 µM)	relative viability (YM155 + Dasatinib; first compound 0.02 µM)	relative viability (YM155 + Dasatinib; first compound 0.06325 µM)
NCI-H1993	1.2	1.17	1.19	1.02	1.33	0.564	0.673	0.624	0.632	0.615	0.722	0.695	0.444	0.529	0.568	0.572	0.478	0.539
A-427	0.911	0.952	1.06	1	1.01	0.517	0.529	0.582	0.515	0.566	0.895	0.965	0.85	0.441	0.688	0.734	0.839	0.818
COR-L23	0.965	0.908	1.14	0.902	0.889	0.436	0.457	0.398	0.372	0.467	0.562	0.378	0.16	0.115	0.503	0.463	0.367	0.221
NCI-H2023	0.777	0.947	0.942	0.751	0.926	0.22	0.198	0.266	0.157	0.214	0.771	0.678	0.682	0.349	0.486	0.588	0.52	0.374
NCI-H661	0.747	0.903	0.684	0.791	0.878	0.55	0.5	0.577	0.561	0.599	0.841	0.948	0.927	0.393	0.742	0.802	0.925	0.749
NCI-H322M	1.15	1.26	1.27	1.24	1.15	0.685	0.653	0.681	0.72	0.763	0.814	0.949	0.944	0.759	0.238	0.271	0.278	0.26
NCI-H838	0.458	0.763	0.65	0.926	0.534	0.418	0.48	0.478	0.466	0.388	0.254	0.429	0.234	0.158		0.291	0.299	0.281
NCI-H23		0.937	1.08	0.97	0.888	0.267	0.266	0.33	0.278	0.317	0.209	0.206	0.187	0.142	0.634	0.692	0.785	0.601
LOU-NH91	0.481	0.509	0.538	0.433	0.513	0.746	0.815	0.862	0.79	0.89	0.299	0.36	0.315	0.375	0.539	0.62	0.569	0.599
